Assay [1] concerns GDH activity in MDA-MB-231 cells. Kind of assay: GDH activity assay in lysates of treated MDA-MB-231 cells. The class given is cell-based, human. Particulars: 50 μM, 4 h. The protocol: Selected compounds 3a–d were tested in triple-negative breast cancer MDA-MB-231 cells to evaluate their effects on SIRT3 physiological substrates. First, the effect on the activity of GDH (an established SIRT3 substrate activated through deacetylation[60]−[62]) was investigated by a coupled enzyme assay. […] These effects of SIRT3 activators clearly phenocopied those observed in the SIRT3-overexpressing MDA-MB-231 cells (SIRT3^+) (Figure 6).
GDH activity in cells treated or not with the SIRT3 activators 3a–d and the reference compounds 2 and 3 was measured using a GDH activity assay kit (MAK099, Merck) following the manufacturer’s instructions. Briefly, 10^6 cells were lysed in 40 μL of GDH assay buffer and kept for 10 min in ice. Afterward, lysates were centrifuged to collect supernatants. Ten microliters of supernatant were added to 40 μL of GDH buffer and 100 μL of a mix containing GDH assay buffer, developer, and glutamate. The whole mix was transferred into a 96-well plate and incubated at 37 °C for 3 min. Finally, absorbance was read at 450 nm using a GloMax multi detection system (Promega, Milan, Italy). The absorbance of the assay buffer was subtracted from each experimental sample.

The test system of assay [2] is HIF-1α, EPAS-1, and CA-IX protein expression in CAL-62. Kind of assay: Western blot of HIF-1α, EPAS-1 and CA-IX in CAL-62 cells under hypoxia. Format: cell-based. Particulars: CAL-62, 50 μM, 48 h, hypoxia. The protocol: Based on these findings, we decided to assess the ability of the SIRT3 activators 3a–d to impair HIF-1α, EPAS-1, and CA-IX protein expression in CAL-62 (Figure 10A–F) and MDA-MB-231 (Figure 11A–F) cell lines treated with the compounds at 50 μM for 48 h and under hypoxia conditions.
Breast cancer cell line MDA-MB-231, anaplastic thyroid cancer cell line CAL-62 and human keratinocytes HaCaT were purchased from ATCC and were cultured in RPMI 1640 medium (R0883 Sigma Aldrich-MERCK) (MDA-MB-231 and CAL-62) or DMEM medium (11965092, Gibco) supplemented with 10% fetal bovine serum (Sigma-Aldrich-MERCK, F9665), 2 mM glutamine (G7513; Sigma-Aldrich-MERCK), 100 units/mL penicillin and 0.1 mg/mL streptomycin (P0781; Sigma-Aldrich-MERCK). Adherent cells were detached by Trypsin–EDTA solution (TA049; Sigma-Aldrich-MERCK). Cells were maintained at 37 °C in humidified incubator with 5% CO2. Cells were treated with […] (CoCl2) (Merck; C8661) dissolved in distilled, sterile water for 24 h to induce hypoxia (200 μM). Hypoxic and normoxic cells were also treated with 10/50 μM of the indicated compounds (dissolved in DMSO) for 48 h, maintaining the CoCl2 in the culture medium for hypoxic conditions. SIRT3 inhibitor 3-TYP was dissolved in DMSO and added to a final concentration of 1 μM for 24 and/or 48 h.
The following antibodies were used in this study: ACTB (Merck; A5316), HIF1-α (Cell Signaling; 14179), HIF2/EPAS-1 (Santa Cruz Biotechnology sc-13596), HXKII (Santa Cruz Biotechnology sc-6521), CAIX (Novus Biotechnology NB100-417), SIRT3 (Cell Signaling; 2627S), MnSOD (Abcam ab13533), MnSOD K68 (Abcam ab137037), MnSOD K122 (Abcam ab214675), peroxidase-conjugated AffiniPure Goat Anti-Rabbit IgG (H + L) (Jackson ImmunoResearch; 111-035-003), and peroxidase-conjugated AffiniPure Goat Anti-Mouse IgG (H + L) (Jackson ImmunoResearch; 115-035-062).
Treated and untreated cells were collected and centrifuged at 3000 rpm for 5 min. After removing the supernatant, cells were lysed in 70 μL of lysis buffer containing: 50 mM Tris-Cl (Merck; 93352), 250 mM sodium chloride (NaCl, Merck; S7653), 5 mM ethylenediaminetetraacetic acid (EDTA; Merck; E6758), 0.1% Triton X-100 and 0.1 mM dithiothreitol (Merck; D9163) plus 1 mM phenylmethylsulfonyl fluoride (PMSF, Merck; 93482), protease inhibitor cocktail (PI; Merck; P8340), 1 mM sodium orthovanadate (NA3VO4, Merck; S6508), and 10 mM sodium fluoride (NaF, Merck; 201154) (lysis buffer). After 30 min on ice, samples were centrifuged at 13,000 rpm for 10 min at 4 °C, and the supernatants collected. Protein concentration was determined by the Bradford assay (Bio-Rad; 500-0205). The equivalent of 15 or 50 μg of protein was boiled for 5 min, electrophoresed onto denaturing SDS-PAGE gel, and transferred onto a […] nitrocellulose membrane (Bio-Rad; 162-0115). After blocking with 5% milk, membranes were incubated with the appropriate primary antibody overnight. The next day, after three washes with 0.1% Tween 20 (Merck; P9416) in PBS (PBST) for 30 min at rt, membranes were incubated with the appropriate secondary antibody for 1 h at rt. After three more washes in PBST, the detection of the relevant protein was assessed by enhanced chemiluminescence (Lite Ablot TURBO, Euro-Clone; EMP012001). Densitometric analysis of the bands, relative to ACTB, was performed using ImageJ Software v1.51 (NIH, Bethesda, MD, USA).
In general terms: In western blotting, separated proteins are transferred to a membrane and probed.

Each structure is given as a SMILES string.

As for `CCOC(=O)C1=CN(C(=O)c2cc(OC)cc(OC)c2)C=C(C(=O)OCC)C1c1ccccc1` [Compound 3d, Diethyl 1-(3,5-dimethoxybenzoyl)-4-phenyl-1,4-dihydropyridine-3,5-dicarboxylate], in assay [1], the GDH activation result is reported as “around 175%” and the “effect on GDH activity in cell lysates” value is “increase in GDH activity”. Moreover, in assay [2], the CA-IX protein expression entry was “significantly downregulated”, the EPAS-1 protein expression result was “downregulated” and the HIF-1α protein expression entry is “decrease”.
With `CCOC(=O)C1=CN(C(=O)c2cccc(OC)c2)C=C(C(=O)OCC)C1c1ccccc1` [Compound 3a, Diethyl 1-(3-methoxybenzoyl)-4-phenyl-1,4-dihydropyridine-3,5-dicarboxylate], the “effect on GDH activity in cell lysates” value in assay [1] is recorded as “increase in GDH activity”. Besides, the CA-IX protein expression entry in assay [2] is “significantly downregulated”.
Turning to `CCOC(=O)C1=CN(C(=O)c2ccc(OC)c(OC)c2)C=C(C(=O)OCC)C1c1ccccc1` [Compound 3c, Diethyl 1-(3,4-dimethoxybenzoyl)-4-phenyl-1,4-dihydropyridine-3,5-dicarboxylate], the “effect on GDH activity in cell lysates” value in assay [1] is given as “increase in GDH activity”. Besides, the EPAS-1 protein expression result in assay [2] is listed as “downregulated”.

The values are drawn from publication PMC10388363, “Novel 1,4-Dihydropyridines as Specific Binders and Activators of SIRT3 Impair Cell Viability and Clonogenicity and Downregulate Hypoxia-Induced Targets in Cancer Cells” (Journal of Medicinal Chemistry, 2023).
